Assays:
[1] = Drug metabolism in Wistar rat urine/feces treated with 750 mg/kg, po of 3,5,7,3',4'-pentamethoxyflavone by LC-MS and LC-MS/MS analysis; assay type: ADME, organism-based; design: dose 750 mg/kg, route oral; settings: in vivo
[2] = Drug metabolism in Wistar rat urine/feces treated with 750 mg/kg, po of 5,7-dimethoxyflavone by LC-MS and LC-MS/MS analysis; assay type: ADME, organism-based; design: dose 750 mg/kg, route oral; settings: in vivo
[3] = Drug excretion in Wistar rat feces at 750 mg/kg, po after 12 hrs by HPLC-UV analysis; assay type: ADME, organism-based; design: dose 750 mg/kg, route oral; settings: in vivo
[4] = Drug excretion in Wistar rat urine at 750 mg/kg, po after 12 hrs by HPLC-UV analysis; assay type: ADME, organism-based; design: dose 750 mg/kg, route oral; settings: in vivo
[5] = Drug metabolism in Wistar rat assessed as excretion of 7-methoxy-2-(4-methoxyphenyl)-4-oxo-4H-chromen-5-yl hydrogen sulfate in urine at 750 mg/kg, po by LC-MS and LC-MS/MS analysis; assay type: ADME, organism-based; design: dose 750 mg/kg, route oral; settings: in vivo
[6] = Cmax in Wistar rat lung at 750 mg/kg, po by LC-MS/MS analysis; assay type: ADME, organism-based; design: dose 750 mg/kg, route oral
[7] = Cmax in Wistar rat testes at 750 mg/kg, po by LC-MS/MS analysis; assay type: ADME, organism-based, Testis; design: dose 750 mg/kg, route oral
[8] = Drug metabolism in Wistar rat assessed as excretion of 5-hydroxy-2-(4-hydroxyphenyl)-7-methoxy-4H-chromen-4-one in urine/feces at 750 mg/kg, po by LC-MS and LC-MS/MS analysis; assay type: ADME, organism-based; design: dose 750 mg/kg, route oral; settings: in vivo
[9] = Cmax in Wistar rat brain at 750 mg/kg, po by LC-MS/MS analysis; assay type: ADME, organism-based; design: dose 750 mg/kg, route oral
[10] = Half life in Wistar rat at 250 mg/kg, po by HPLC analysis; assay type: ADME, organism-based; design: dose 250 mg/kg, route oral; settings: in vivo
[11] = Tmax in Wistar rat lung at 750 mg/kg, po by LC-MS/MS analysis; assay type: ADME, organism-based; design: dose 750 mg/kg, route oral
Lung = assay: AUC (0.083 to 4 hrs) in Wistar rat lung at 750 mg/kg, po by LC-MS/MS analysis; assay type: ADME, organism-based; design: time upper 4 hr, time lower 0.083 hr, dose 750 mg/kg, route oral; settings: in vivo
[12] = Clearance in Wistar rat at 250 mg/kg, iv by HPLC analysis; assay type: ADME, organism-based; design: dose 250 mg/kg, route intravenous; settings: in vivo
[13] = Drug excretion in Wistar rat feces at 750 mg/kg, po after 18 to 24 hrs by HPLC-UV analysis; assay type: ADME, organism-based; design: dose 750 mg/kg, route oral; settings: in vivo
[14] = Cmax in Wistar rat liver at 750 mg/kg, po by LC-MS/MS analysis; assay type: ADME, organism-based; design: dose 750 mg/kg, route oral
[15] = Cmax in Wistar rat kidney at 750 mg/kg, po by LC-MS/MS analysis; assay type: ADME, organism-based; design: dose 750 mg/kg, route oral
Rattus norvegicus [16] = assay: Volume of distribution in Wistar rat at 250 mg/kg, po by HPLC analysis; assay type: ADME, organism-based; design: dose 250 mg/kg, route oral; settings: in vivo
[17] = Drug metabolism in Wistar rat assessed as excretion of 5-hydroxy-2-(4-methoxyphenyl)-4-oxo-4H-chromen-7-yl hydrogen sulfate in urine at 750 mg/kg, po by LC-MS and LC-MS/MS analysis; assay type: ADME, organism-based; design: dose 750 mg/kg, route oral; settings: in vivo
[18] = Tmax in Wistar rat kidney at 750 mg/kg, po by LC-MS/MS analysis; assay type: ADME, organism-based; design: dose 750 mg/kg, route oral
Brain = assay: AUC (0.083 to 4 hrs) in Wistar rat brain at 750 mg/kg, po by LC-MS/MS analysis; assay type: ADME, organism-based; design: time 0.083-4 hr, dose 750 mg/kg, route oral; settings: in vivo
[19] = Tmax in Wistar rat liver at 750 mg/kg, po by LC-MS/MS analysis; assay type: ADME, organism-based; design: dose 750 mg/kg, route oral
[20] = AUC in Wistar rat at 250 mg/kg, po by HPLC analysis; assay type: ADME, organism-based; design: dose 250 mg/kg, route oral; settings: plasma
[21] = Drug excretion in Wistar rat feces at 750 mg/kg, po after up to 72 hrs by HPLC-UV analysis; assay type: ADME, organism-based; design: dose 750 mg/kg, route oral; settings: faeces, read-out: Drug excretion
Rattus norvegicus [22] = assay: Absorption rate constant in Wistar rat at 250 mg/kg, po by HPLC analysis; assay type: ADME, organism-based; design: dose 250 mg/kg, route oral; settings: in vivo
[23] = Tmax in Wistar rat brain at 750 mg/kg, po by LC-MS/MS analysis; assay type: ADME, organism-based; design: dose 750 mg/kg, route oral
[24] = Clearance in Wistar rat at 250 mg/kg, po by HPLC analysis; assay type: ADME, organism-based; design: dose 250 mg/kg, route oral; settings: in vivo
[25] = Elimination rate constant in Wistar rat at 250 mg/kg, po by HPLC analysis; assay type: ADME, organism-based; design: dose 250 mg/kg, route oral; settings: in vivo, read-out: Ke (converted)
[26] = Tmax in Wistar rat testes at 750 mg/kg, po by LC-MS/MS analysis; assay type: ADME, organism-based, Testis; design: dose 750 mg/kg, route oral
[27] = Drug excretion in Wistar rat urine at 750 mg/kg, po after up to 72 hrs by HPLC-UV analysis; assay type: ADME, organism-based; design: dose 750 mg/kg, route oral; settings: read-out: Drug excretion
[28] = AUC (0.083 to 4 hrs) in Wistar rat testes at 750 mg/kg, po by LC-MS/MS analysis; assay type: ADME, organism-based, Testis; design: time 0.083-4 hr, dose 750 mg/kg, route oral; settings: in vivo
[29] = Drug excretion in Wistar rat urine at 750 mg/kg, po after 24 to 72 hrs by HPLC-UV analysis; assay type: ADME, organism-based; design: dose 750 mg/kg, route oral; settings: in vivo
[30] = Cmax in Wistar rat at 250 mg/kg, po by HPLC analysis; assay type: ADME, organism-based; design: dose 250 mg/kg, route oral; settings: in vivo
[31] = Tmax in Wistar rat at 250 mg/kg, po by HPLC analysis; assay type: ADME, organism-based; design: dose 250 mg/kg, route oral; settings: in vivo
Liver = assay: AUC (0.083 to 4 hrs) in Wistar rat liver at 750 mg/kg, po by LC-MS/MS analysis; assay type: ADME, organism-based; design: time 0.083-4 hr, dose 750 mg/kg, route oral; settings: in vivo
[32] = Elimination rate constant in Wistar rat at 250 mg/kg, iv by HPLC analysis; assay type: ADME, organism-based; design: dose 250 mg/kg, route intravenous; settings: Wistar, in vivo, read-out: Ke (converted)
[33] = Half life in Wistar rat at 250 mg/kg, iv by HPLC analysis; assay type: ADME, organism-based; design: dose 250 mg/kg, route intravenous; settings: Wistar, in vivo
[34] = Oral bioavailability in Wistar rat at 250 mg/kg by HPLC analysis; assay type: ADME, organism-based; settings: in vivo
Kidney = assay: AUC (0.083 to 4 hrs) in Wistar rat kidney at 750 mg/kg, po by LC-MS/MS analysis; assay type: ADME, organism-based; design: time 0.083-4 hr, dose 750 mg/kg, route oral; settings: in vivo
[35] = AUC in Wistar rat at 250 mg/kg, iv by HPLC analysis; assay type: ADME, organism-based; design: dose 250 mg/kg, route intravenous; settings: plasma
[36] = Drug metabolism in Wistar rat urine/feces treated with 750 mg/kg, po of 3,5,7,4'-tetramethoxyflavone by LC-MS and LC-MS/MS analysis; assay type: ADME, organism-based; design: dose 750 mg/kg, route oral; settings: in vivo
[37] = Drug metabolism in Wistar rat assessed as excretion of 2-phenyl-5-((2S,3R,4S,5S,6R)-3,4,5-trihydroxy-6-(hydroxymethyl)tetrahydro-2H-pyran-2-yloxy)-4H-chromen-4-one in urine at 750 mg/kg, po by LC-MS and LC-MS/MS analysis; assay type: ADME, organism-based; design: dose 750 mg/kg, route oral; settings: in vivo
[38] = Drug excretion in Wistar rat feces at 750 mg/kg, po after 12 to 18 hrs by HPLC-UV analysis; assay type: ADME, organism-based; design: dose 750 mg/kg, route oral; settings: in vivo
[39] = Drug excretion in Wistar rat urine at 750 mg/kg, po after 18 to 24 hrs by HPLC-UV analysis; assay type: ADME, organism-based; design: dose 750 mg/kg, route oral; settings: in vivo
[40] = Drug excretion in Wistar rat urine at 750 mg/kg, po after 72 hrs by HPLC-UV analysis; assay type: ADME, organism-based; design: dose 750 mg/kg, route oral; settings: in vivo
[41] = Drug metabolism in Wistar rat assessed as excretion of 7-methoxy-4-oxo-2-phenyl-4H-chromen-5-yl hydrogen sulfate in urine at 750 mg/kg, po by LC-MS and LC-MS/MS analysis; assay type: ADME, organism-based; design: dose 750 mg/kg, route oral; settings: in vivo
[42] = Drug metabolism in Wistar rat assessed as excretion of 5,7-dihydroxy-2-phenyl-4H-chromen-4-one in urine/feces at 750 mg/kg, po by LC-MS and LC-MS/MS analysis; assay type: ADME, organism-based; design: dose 750 mg/kg, route oral; settings: in vivo

COc1cc(O)c2c(=O)c(O)c(-c3ccc(OC)c(O)c3)oc2c1 [OMBUINE]
Drug metabolism [1]: metabolite_detected

COc1cc(OS(=O)(=O)O)c2c(=O)cc(-c3ccccc3)oc2c1
Drug metabolism [2]: metabolite_detected

COc1ccc(-c2oc3cc(OC)cc(O)c3c(=O)c2OC)cc1
Drug excretion [3]: Active | Drug excretion [4]: Active

COc1ccc(-c2cc(=O)c3c(OC)cc(OC)cc3o2)cc1 [TRIMETHYLAPIGENIN]
Drug metabolism [5]: metabolite_detected | Drug excretion [3]: Active | Cmax [6]: 1410 ng/g | Cmax [7]: 1100 ng/g | Drug metabolism [8]: metabolite_detected | Cmax [9]: 1430 ng/g | half-life [10]: 5.04 h | Tmax [11]: 1.76 h | AUC (Lung): 1.88 µg·h/g | clearance [12]: 0.105 mL/min | Drug excretion [13]: Active | Cmax [14]: 3010 ng/g | Cmax [15]: 1640 ng/g | Vd (Rattus norvegicus [16]): 2385.1 mL | Drug metabolism [17]: metabolite_detected | Tmax [18]: 3.43 h | AUC (Brain): 2.5 µg·h/g | Tmax [19]: 2.64 h | AUC [20]: 6.96 µg·h/mL | dose excreted at 72 h [21]: 1.76% | ka (Rattus norvegicus [22]): 8.53 h⁻¹ | Tmax [23]: 3.43 h | CL/F [24]: 5.62 mL/min | k el [25]: 4.17e-05 s⁻¹ | Tmax [26]: 3.14 h | dose excreted at 72 h [27]: 1.77% | AUC [28]: 1.96 µg·h/g | Drug excretion [29]: Active | Cmax [30]: 880 ng/mL | Tmax [31]: 0.85 h | AUC (Liver): 7.83 µg·h/g | k el [32]: 8.89e-05 s⁻¹ | Drug excretion [4]: Active | half-life [33]: 4.19 h | bioavailability [34]: 1.75% | AUC (Kidney): 3.01 µg·h/g | AUC [35]: 276 µg·h/mL

COc1cc(O)c2c(=O)c(O)c(-c3ccc(O)cc3)oc2c1 [RHAMNOCITRIN]
Drug metabolism [36]: metabolite_detected

COc1cc(OC)c2c(=O)c(OC)c(-c3ccc(OC)c(O)c3)oc2c1
Drug metabolism [1]: metabolite_detected

COc1cc(O)c2c(=O)c(OC)c(-c3ccc(OC)c(O)c3)oc2c1 [AYANIN]
Drug metabolism [1]: metabolite_detected

COc1cc(OC)c2c(=O)cc(-c3ccccc3)oc2c1 [CHRYSIN DIMETHYL ETHER]
Drug metabolism [37]: metabolite_detected | Drug excretion [3]: Active | Cmax [6]: 2000 ng/g | Cmax [7]: 910 ng/g | Drug excretion [38]: Active | Cmax [9]: 960 ng/g | Drug excretion [39]: Active | half-life [10]: 5.85 h | Tmax [11]: 1.2 h | AUC (Lung): 2.17 µg·h/g | clearance [12]: 0.133 mL/min | Cmax [14]: 3850 ng/g | Cmax [15]: 1330 ng/g | Vd (Rattus norvegicus [16]): 2957.53 mL | Tmax [18]: 3.43 h | AUC (Brain): 1.91 µg·h/g | Tmax [19]: 2.57 h | AUC [20]: 7.01 µg·h/mL | dose excreted at 72 h [21]: 3.1% | ka (Rattus norvegicus [22]): 8.69 h⁻¹ | Tmax [23]: 3.14 h | CL/F [24]: 6.12 mL/min | k el [25]: 3.61e-05 s⁻¹ | Tmax [26]: 2.86 h | dose excreted at 72 h [27]: 0.96% | AUC [28]: 1.9 µg·h/g | Drug excretion [40]: metabolite_not_detected | Cmax [30]: 780 ng/mL | Tmax [31]: 0.76 h | AUC (Liver): 8.6 µg·h/g | k el [32]: 8.89e-05 s⁻¹ | Drug excretion [4]: Active | half-life [33]: 3.75 h | bioavailability [34]: 2.1% | AUC (Kidney): 2.51 µg·h/g | Drug metabolism [41]: metabolite_detected | Drug metabolism [42]: metabolite_detected | AUC [35]: 233 µg·h/mL

O=c1cc(-c2ccccc2)oc2cc(O)cc(O)c12 [CHRYSIN]
Drug metabolism [2]: metabolite_detected

— ChEMBL document CHEMBL3526121, “Pharmacokinetics, bioavailability, tissue distribution, excretion, and metabolite identification of methoxyflavones in Kaempferia parviflora extract in rats” (Drug Metab Dispos, 2012)
